What all share (assay): Cysteine liganding, probe competition
Format in all cases: binding

Test [1] concerns the target T1, UniProt O43164 (Homo sapiens, UniProt O43164).
T1 construct: 200 μL of lysate containing 5 mg/ml proteome was treated with 2 μL of 100× compound stock; endogenous in cells
The text has this: (§1) The following 96-well sample prep protocol was used for sample preparation.

Test [2] has as its target T2, UniProt O43791 (Homo sapiens, UniProt O43791).
T2 construct: 200 μL of lysate containing 5 mg/ml proteome was treated with 2 μL of 100× compound stock; endogenous in cells
Description: as §1

In test [3] the target is T3, UniProt Q13233 (Homo sapiens, UniProt Q13233).
T3 construct: Cells were resuspended in cold PBS on ice and sonicated with a probe sonicator to achieve lysis; endogenous in cells
Description: as §1

Test [4] addresses T4, UniProt Q86SE9 (Homo sapiens, UniProt Q86SE9).
T4 construct: 200 μL of lysate containing 5 mg/ml proteome was treated with 2 μL of 100× compound stock; endogenous in cells
Description: as §1

Test [5] concerns the target T5, UniProt Q86UD3 (Homo sapiens, UniProt Q86UD3).
T5 construct: Cells were resuspended in cold PBS on ice and sonicated with a probe sonicator to achieve lysis; endogenous in cells
T5 sequence (Q86UD3 1-253): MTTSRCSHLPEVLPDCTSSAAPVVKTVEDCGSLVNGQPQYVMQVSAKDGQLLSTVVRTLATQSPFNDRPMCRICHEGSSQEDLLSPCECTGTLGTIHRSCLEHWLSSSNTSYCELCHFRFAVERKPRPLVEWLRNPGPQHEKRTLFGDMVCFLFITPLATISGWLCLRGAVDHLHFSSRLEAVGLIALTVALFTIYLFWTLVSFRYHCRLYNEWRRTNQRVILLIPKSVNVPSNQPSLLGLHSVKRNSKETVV
Description: as §1

Test [6] has as its target T6, UniProt Q8IY92 (Homo sapiens, UniProt Q8IY92).
T6 construct: 200 μL of lysate containing 5 mg/ml proteome was treated with 2 μL of 100× compound stock; endogenous in cells
Description: as §1

Test [7] concerns the target T7, UniProt Q9C026 (Homo sapiens, UniProt Q9C026).
T7 construct: 200 μL of lysate containing 5 mg/ml proteome was treated with 2 μL of 100× compound stock; endogenous in cells
Description: as §1

Test [8] addresses T8, UniProt Q9HBE1 (Homo sapiens, UniProt Q9HBE1).
T8 construct: Cells were resuspended in cold PBS on ice and sonicated with a probe sonicator to achieve lysis; endogenous in cells
Description: as §1

Test [9] addresses T9, UniProt O43255 (Homo sapiens, UniProt O43255).
T9 construct: 200 μL of lysate containing 5 mg/ml proteome was treated with 2 μL of 100× compound stock; endogenous in cells
T9 sequence (O43255 1-324): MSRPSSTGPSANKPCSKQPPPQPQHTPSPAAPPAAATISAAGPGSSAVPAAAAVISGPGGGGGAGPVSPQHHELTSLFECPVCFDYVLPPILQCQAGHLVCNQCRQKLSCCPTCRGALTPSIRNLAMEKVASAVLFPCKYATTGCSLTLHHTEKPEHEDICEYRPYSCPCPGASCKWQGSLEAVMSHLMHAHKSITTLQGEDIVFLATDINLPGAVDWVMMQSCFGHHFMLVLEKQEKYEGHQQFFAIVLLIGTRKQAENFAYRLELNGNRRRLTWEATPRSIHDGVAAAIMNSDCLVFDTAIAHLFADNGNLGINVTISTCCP
Description: as §1

The target of test [10] is T10, UniProt Q13829 (Homo sapiens, UniProt Q13829).
T10 construct: 200 μL of lysate containing 5 mg/ml proteome was treated with 2 μL of 100× compound stock; endogenous in cells
T10 sequence (Q13829 1-316): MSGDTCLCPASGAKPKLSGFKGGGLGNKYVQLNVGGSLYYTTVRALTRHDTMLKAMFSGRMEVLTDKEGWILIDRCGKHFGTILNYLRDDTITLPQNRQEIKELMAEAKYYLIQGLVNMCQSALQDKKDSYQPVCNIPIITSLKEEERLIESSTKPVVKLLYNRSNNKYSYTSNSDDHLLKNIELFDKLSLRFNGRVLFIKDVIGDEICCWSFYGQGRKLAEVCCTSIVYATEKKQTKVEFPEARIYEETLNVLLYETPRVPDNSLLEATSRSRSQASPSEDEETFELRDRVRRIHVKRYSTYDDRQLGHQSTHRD
Description: as §1

Test [11] addresses T11, UniProt Q8TEL6 (Homo sapiens, UniProt Q8TEL6).
T11 construct: 200 μL of lysate containing 5 mg/ml proteome was treated with 2 μL of 100× compound stock; endogenous in cells
T11 sequence (Q8TEL6 1-797): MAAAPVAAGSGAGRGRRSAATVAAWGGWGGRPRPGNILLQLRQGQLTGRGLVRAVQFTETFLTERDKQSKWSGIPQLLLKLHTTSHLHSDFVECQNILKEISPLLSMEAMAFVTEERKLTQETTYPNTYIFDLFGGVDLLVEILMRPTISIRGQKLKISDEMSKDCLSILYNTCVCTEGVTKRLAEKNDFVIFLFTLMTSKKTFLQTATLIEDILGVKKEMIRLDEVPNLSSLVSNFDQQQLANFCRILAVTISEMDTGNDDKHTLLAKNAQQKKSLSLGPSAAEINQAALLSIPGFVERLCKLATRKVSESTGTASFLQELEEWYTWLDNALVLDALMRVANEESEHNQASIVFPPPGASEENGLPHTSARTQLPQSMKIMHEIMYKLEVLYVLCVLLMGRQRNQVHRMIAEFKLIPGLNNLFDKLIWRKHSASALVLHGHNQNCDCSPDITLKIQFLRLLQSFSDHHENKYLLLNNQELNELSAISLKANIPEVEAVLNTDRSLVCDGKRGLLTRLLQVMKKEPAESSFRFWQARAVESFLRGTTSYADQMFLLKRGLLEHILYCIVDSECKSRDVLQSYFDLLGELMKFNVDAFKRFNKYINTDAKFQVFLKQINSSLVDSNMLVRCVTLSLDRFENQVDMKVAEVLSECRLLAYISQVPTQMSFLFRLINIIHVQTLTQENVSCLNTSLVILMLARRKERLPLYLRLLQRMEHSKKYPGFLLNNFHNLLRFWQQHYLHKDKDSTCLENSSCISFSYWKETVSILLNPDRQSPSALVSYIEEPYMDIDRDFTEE
Description: as §1

Test [12] deals with T12, UniProt Q96DX4 (Homo sapiens, UniProt Q96DX4).
T12 construct: 200 μL of lysate containing 5 mg/ml proteome was treated with 2 μL of 100× compound stock; endogenous in cells
The following applies: read-out: percent_inhibition.
Description: as §1

Test [13] concerns the target T13, UniProt Q9H0A6 (Homo sapiens, UniProt Q9H0A6).
T13 construct: 200 μL of lysate containing 5 mg/ml proteome was treated with 2 μL of 100× compound stock; endogenous in cells
Description: as §1

The target of test [14] is T14, UniProt Q9H0F5 (Homo sapiens, UniProt Q9H0F5).
T14 construct: 200 μL of lysate containing 5 mg/ml proteome was treated with 2 μL of 100× compound stock; endogenous in cells
The following applies: for percent_inhibition / inhibition at 500 µM: 500 uM.
Description: as §1

Where [15] appears, read: 100 uM, read-out: percent_inhibition.
Setting [16] is: 500 uM, read-out: percent_inhibition.
[17] abbreviates: read-out: KB05_100 uM_percent_inhibition.
Setting [18] is: 500 uM, read-out: KB05_500 uM_percent_inhibition.

T7 sequence (Q9C026 whole entry, change not shown): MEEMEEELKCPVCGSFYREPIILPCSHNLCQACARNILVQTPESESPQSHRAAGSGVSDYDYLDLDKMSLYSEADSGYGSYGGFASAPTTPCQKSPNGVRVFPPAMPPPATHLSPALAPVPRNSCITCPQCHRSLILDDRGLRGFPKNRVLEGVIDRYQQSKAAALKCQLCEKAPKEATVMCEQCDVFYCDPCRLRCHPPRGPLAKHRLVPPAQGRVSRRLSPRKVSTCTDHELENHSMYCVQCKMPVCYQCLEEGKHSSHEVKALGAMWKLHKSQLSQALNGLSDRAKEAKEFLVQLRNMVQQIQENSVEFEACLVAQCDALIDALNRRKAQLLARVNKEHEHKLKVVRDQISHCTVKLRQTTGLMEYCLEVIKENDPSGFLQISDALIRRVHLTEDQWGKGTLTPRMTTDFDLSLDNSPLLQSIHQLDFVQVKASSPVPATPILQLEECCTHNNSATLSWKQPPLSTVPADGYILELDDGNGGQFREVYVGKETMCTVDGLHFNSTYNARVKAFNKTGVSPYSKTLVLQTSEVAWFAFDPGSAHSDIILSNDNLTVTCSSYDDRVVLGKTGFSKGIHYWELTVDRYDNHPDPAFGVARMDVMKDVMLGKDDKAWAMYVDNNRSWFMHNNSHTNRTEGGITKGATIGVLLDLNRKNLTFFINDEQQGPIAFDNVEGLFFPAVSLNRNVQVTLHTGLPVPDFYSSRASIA
T14 sequence (Q9H0F5 whole entry, change not shown): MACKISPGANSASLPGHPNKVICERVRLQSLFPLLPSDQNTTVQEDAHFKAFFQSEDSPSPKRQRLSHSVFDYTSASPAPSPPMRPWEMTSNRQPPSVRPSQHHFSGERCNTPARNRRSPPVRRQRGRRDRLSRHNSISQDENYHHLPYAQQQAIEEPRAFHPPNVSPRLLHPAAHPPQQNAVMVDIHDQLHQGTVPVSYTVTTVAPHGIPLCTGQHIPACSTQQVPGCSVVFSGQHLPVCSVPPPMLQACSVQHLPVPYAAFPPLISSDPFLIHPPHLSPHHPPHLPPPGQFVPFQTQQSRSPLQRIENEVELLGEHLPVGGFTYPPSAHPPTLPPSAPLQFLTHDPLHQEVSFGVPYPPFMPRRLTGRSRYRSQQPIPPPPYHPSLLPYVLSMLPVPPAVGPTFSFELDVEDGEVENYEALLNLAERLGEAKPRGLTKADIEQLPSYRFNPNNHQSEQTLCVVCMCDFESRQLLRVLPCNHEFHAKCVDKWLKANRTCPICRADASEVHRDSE
T13 sequence (Q9H0A6 whole entry, change not shown): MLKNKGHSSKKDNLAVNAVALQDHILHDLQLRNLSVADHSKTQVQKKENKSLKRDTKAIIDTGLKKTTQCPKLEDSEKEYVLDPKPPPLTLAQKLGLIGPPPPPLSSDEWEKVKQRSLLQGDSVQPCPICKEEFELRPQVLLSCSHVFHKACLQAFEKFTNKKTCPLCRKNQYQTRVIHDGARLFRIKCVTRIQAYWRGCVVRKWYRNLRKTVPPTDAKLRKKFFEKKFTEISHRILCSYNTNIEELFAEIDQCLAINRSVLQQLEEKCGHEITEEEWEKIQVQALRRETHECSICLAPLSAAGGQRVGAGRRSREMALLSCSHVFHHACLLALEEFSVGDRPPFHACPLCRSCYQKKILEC
T4 sequence (Q86SE9 whole entry, change not shown): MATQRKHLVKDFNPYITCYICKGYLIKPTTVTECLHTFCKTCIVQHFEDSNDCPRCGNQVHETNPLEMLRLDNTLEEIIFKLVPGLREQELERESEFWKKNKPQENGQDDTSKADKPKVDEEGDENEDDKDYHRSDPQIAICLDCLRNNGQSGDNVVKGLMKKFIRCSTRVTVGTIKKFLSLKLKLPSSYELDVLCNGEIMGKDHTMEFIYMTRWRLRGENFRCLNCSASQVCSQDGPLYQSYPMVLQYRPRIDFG
T1 sequence (O43164 whole entry, change not shown): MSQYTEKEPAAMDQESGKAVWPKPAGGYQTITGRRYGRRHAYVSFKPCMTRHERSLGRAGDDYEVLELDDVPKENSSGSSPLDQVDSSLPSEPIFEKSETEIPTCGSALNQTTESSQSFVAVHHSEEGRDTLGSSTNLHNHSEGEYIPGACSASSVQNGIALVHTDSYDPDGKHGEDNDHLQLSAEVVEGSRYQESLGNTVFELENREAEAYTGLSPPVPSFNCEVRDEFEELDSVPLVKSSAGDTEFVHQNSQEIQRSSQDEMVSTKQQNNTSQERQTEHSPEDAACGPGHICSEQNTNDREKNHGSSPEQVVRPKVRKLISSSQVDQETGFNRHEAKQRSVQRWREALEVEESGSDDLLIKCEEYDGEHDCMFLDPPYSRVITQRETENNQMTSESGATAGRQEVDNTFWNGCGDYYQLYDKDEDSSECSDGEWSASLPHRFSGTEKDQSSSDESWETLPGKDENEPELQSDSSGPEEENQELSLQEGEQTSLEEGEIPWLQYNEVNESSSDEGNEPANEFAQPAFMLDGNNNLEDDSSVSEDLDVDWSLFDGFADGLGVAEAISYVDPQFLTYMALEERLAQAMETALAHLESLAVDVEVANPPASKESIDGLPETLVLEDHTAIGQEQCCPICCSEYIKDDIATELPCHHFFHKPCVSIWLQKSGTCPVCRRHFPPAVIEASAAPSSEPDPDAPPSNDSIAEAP
T3 sequence (Q13233 whole entry, change not shown): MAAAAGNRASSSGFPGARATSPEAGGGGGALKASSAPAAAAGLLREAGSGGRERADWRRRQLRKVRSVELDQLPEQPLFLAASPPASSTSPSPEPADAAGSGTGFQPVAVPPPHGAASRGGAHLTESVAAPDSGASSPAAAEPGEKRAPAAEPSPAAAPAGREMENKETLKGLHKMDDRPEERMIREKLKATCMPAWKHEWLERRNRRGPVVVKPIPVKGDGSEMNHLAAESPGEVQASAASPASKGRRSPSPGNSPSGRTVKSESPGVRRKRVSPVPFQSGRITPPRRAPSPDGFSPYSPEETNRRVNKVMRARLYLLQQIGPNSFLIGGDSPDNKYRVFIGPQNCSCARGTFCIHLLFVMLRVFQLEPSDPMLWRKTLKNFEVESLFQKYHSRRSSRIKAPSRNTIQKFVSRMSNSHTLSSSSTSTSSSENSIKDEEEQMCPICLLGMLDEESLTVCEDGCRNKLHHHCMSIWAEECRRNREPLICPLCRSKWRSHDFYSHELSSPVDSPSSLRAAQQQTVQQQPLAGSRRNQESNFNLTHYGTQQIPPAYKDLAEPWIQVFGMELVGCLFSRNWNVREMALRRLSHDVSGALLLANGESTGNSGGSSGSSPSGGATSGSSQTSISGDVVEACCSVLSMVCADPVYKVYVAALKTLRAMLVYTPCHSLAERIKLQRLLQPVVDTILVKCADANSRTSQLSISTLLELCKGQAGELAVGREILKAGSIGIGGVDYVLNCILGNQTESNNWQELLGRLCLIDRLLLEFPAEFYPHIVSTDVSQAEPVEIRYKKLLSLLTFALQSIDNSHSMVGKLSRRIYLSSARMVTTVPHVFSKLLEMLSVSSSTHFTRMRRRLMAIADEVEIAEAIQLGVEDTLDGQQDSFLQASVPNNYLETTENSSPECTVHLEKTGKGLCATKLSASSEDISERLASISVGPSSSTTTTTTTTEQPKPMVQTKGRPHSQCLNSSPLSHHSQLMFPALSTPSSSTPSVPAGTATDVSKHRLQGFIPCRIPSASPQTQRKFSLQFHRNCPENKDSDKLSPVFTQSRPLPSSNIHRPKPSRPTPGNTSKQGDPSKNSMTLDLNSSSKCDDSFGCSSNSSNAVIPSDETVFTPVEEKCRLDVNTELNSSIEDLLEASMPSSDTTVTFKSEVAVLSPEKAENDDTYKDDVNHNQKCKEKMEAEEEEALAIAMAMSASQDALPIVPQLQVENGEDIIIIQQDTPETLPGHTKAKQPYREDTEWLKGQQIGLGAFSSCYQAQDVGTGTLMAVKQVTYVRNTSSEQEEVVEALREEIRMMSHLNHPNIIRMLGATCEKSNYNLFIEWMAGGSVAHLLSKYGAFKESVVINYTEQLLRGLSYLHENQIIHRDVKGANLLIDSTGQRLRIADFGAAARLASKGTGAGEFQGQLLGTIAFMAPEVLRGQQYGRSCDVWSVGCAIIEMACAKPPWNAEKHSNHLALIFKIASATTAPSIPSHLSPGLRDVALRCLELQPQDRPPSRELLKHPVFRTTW
T8 sequence (Q9HBE1 whole entry, change not shown): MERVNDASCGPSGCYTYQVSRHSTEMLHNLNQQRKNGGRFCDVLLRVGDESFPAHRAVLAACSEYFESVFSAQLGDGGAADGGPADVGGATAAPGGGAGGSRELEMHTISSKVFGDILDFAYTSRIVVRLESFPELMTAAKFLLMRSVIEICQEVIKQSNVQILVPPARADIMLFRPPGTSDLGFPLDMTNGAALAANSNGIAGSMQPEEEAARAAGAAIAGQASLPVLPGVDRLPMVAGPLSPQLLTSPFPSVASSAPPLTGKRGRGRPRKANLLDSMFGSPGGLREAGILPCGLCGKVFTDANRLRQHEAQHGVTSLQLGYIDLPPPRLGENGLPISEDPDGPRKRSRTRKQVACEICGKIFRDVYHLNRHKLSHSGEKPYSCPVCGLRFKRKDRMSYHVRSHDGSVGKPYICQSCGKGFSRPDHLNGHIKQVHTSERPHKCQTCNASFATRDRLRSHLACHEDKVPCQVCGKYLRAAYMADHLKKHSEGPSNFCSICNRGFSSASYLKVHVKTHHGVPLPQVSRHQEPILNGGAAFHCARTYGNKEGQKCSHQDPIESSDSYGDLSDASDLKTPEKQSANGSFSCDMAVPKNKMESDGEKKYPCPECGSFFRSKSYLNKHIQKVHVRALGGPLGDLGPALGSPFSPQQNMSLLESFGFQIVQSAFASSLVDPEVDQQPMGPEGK

On to `O=C(CCl)Nc1cc(C(F)(F)F)cc(C(F)(F)F)c1` [KBO3], for which the “KB03_100 uM_percent_inhibition” value in [1] (100 uM) amounted to 22%; in test [4] (100 uM), 25%; in test [7] (100 uM) it was 13%; in test [8] (100 uM), 72%. Moreover, the values for the percent_inhibition in test [2] (100 uM) and in test [6] (100 uM) were 57% and 8%, respectively. Besides, the percent inhibition came to 19% in [3] (100 uM) and 66% in test [5] (500 uM).

Turning to `COc1ccc2c(c1)CCCN2C(=O)CCl` [KB02], the percent_inhibition in [9] (100 uM) is reported as 20%; in [10] (100 uM) it was 4%; in [10] (500 uM), 9%; in test [14], 42%. The inhibition at 100 µM in test [9] (setting [15]) is 31%; in test [2] (read-out: percent_inhibition), 49%; in test [10] (setting [15]) it was 8%; in test [5] (100 uM, read-out: percent inhibition), 34%; in test [11] (100 uM, read-out: KB02_100 uM_percent_inhibition), 1%; in test [13] (setting [15]), 44%. Further, the inhibition at 100 µM in test [14] (setting [15]) is 44%. Besides, the inhibition at 500 µM is 15% in test [10] (setting [16]); 77% in test [5] (500 uM, read-out: percent inhibition); 17% in test [12]; 64% in test [7] (500 uM, read-out: KB02_500 uM_percent_inhibition); 42% in test [13] (setting [16]); 24% in test [14] (read-out: percent_inhibition). Further, the “KB02_500 uM_percent_inhibition” value in test [7] (500 uM) worked out at 69%.

Take `C=CC(=O)N(c1ccccc1)c1ccc(Br)cc1` [KB05]: the inhibition at 100 µM in test [1] (setting [17]) is 1%; in test [3] (read-out: percent inhibition) it was 31%; in test [10] (setting [15]) it was 7%; in test [4] (100 uM, read-out: KB05_100 uM_percent_inhibition), 9%; in test [6] (read-out: percent_inhibition) it was 10%; in test [8] (setting [17]), 45%. In addition, the inhibition at 500 µM turned out to be 28% in [9] (setting [16]); 53% in test [4] (setting [18]); 77% in test [11] (setting [18]); 24% in [12]; 16% in test [13] (setting [16]); 16% in [14] (read-out: percent_inhibition). Moreover, the “KB05_500 uM_percent_inhibition” value in test [4] (500 uM) is 58%; in [11] (500 uM), 61%. In addition, the percent_inhibition in test [13] (500 uM) and in [14] was 10% in each case.

The values above are taken from patent US20200239530A1, “COMPOUNDS AND METHODS OF MODULATING PROTEIN DEGRADATION” (Vividion Therapeutics, Inc., priority 2017, published 2020).
